Assay results from patent publication US9144569B2, “Methods of administering an aromatase inhibitor, prostaglandin and GnRH for regulating ovulation in cattle” (UNIVERSITY OF SASKATCHEWAN, priority 2010, dated 2015).
Marks after values point to notes of the source that are not given here.

What was measured:
plasma progesterone = assay: Example II: plasma progesterone, 3-day letrozole regimen; format: in vivo, cattle; settings: 3-day regimen, groups combined; numerically higher
Experimental: Four days after follicular ablation, heifers were given 500 μg of cloprostenol (PGF, Estrumate, Schering-Plough Animal Health, Pointe-Claire, QC, Canada) intramuscularly (im) to induce regression of the CL and to synchronize ovulation. The experiment was performed in two replicates (n=20-27 per replicate) and each heifer was used only once. In replicate 1, heifers were assigned randomly at the time of ovulation (Day 0) to the following groups and given a 3-day regimen of letrozole from Days 1 to 3 (n=5), Days 3 to 5 (n=5), Days 5 to 7 (n=5), or no treatment (control group, n=5). In replicate 2, heifers were similarly assigned to groups and given letrozole from Days 1 to 3, (n=5), Days 3 to 5 (n=4), or Days 5 to 7 (n=4), but untreated control heifers were arranged in three sub-groups to serve as contemporaneous controls for each letrozole-group during intensive blood sampling periods (i.e., control Days 1 to 3, n=4; control Days 3 to 5, n=4; and control Days 5 to 7, n=5). For practical purposes, the total dose of letrozole (250 μg/kg) was calculated on the basis of an average weight of 350 kg for all heifers and administered intravenously in daily divided doses over 3 days (85 μg/kg per day). […]
Plasma progesterone concentrations were determined in duplicate using a commercial solid-phase kit (Coat-A-Count; Diagnostic Products Corporation, Los Angeles, Calif., USA). […]

[1] = tested on: Hereford-cross beef heifers; assay: Example I: single intravenous dose of letrozole in heifers, ovarian ultrasonography (follicle and CL dynamics); format: in vivo, cattle
Experimental: Hereford-cross beef heifers, 14 to 20 months of age and weighing between 295 and 450 kg, were chosen from a herd of 50 heifers maintained in outdoor corrals at the University of Saskatchewan Goodale Research Farm (52° North and 106° West). Heifers were fed alfalfa/grass hay and grain to gain approximately 1.3 Kg per day and had water ad libitum during the experimental period from July to October. Heifers were initially examined by transrectal ultrasonography (7.5 MHz linear-array transducer, Aloka SSD-900; Tokyo, Japan) to confirm that they were postpubertal by observing the presence of a CL [33].
Heifers in which a CL was detected during the initial examination were given […] cloprostenol (PGF, Estrumate™, Schering-Plough Animal Health, Pointe-Claire, QC, Canada) intramuscularly (im) to induce regression of the CL and to synchronize ovulation. Heifers were examined daily by transrectal ultrasonography to detect ovulation. Transvaginal ultrasound-guided follicular aspiration of follicles ≧5 mm was performed five to eight days after ovulation to synchronize wave emergence. Heifers were examined daily by transrectal ultrasonography to detect follicular wave emergence, which was expected 1 to 1.5 days after follicular ablation. Four days after follicular ablation (approximately 2.5 days after follicular wave emergence), and at the time follicular dominance becomes apparent, heifers were assigned randomly to the following treatment groups and given a single intravenous dose of 1) 500 μg/kg of letrozole (high dose group, n=9), 2) 250 μg/kg of letrozole (medium dose group, n=10), 3) 125 μg/kg of letrozole (low dose group, n=10), or 4) 20 ml of phosphate buffered saline (PBS control group, n=10). For practical purposes, the dose of letrozole was calculated based on an average weight of 400 kg for all heifers. The average oral dose used in women (2.5-5 mg per day for 5 days) was used to estimate the medium dose for cattle. The high and low doses were set as double and half the medium dose, respectively. The day of treatment was defined as Day 0. For intravenous injection, letrozole was prepared in 95% ethanol at a final concentration of 5 mg per ml, resulting in an injection volume of 10-40 ml. The experiment was performed in four replicates (n=2-3 per group per replicate) and each heifer was used only once.
The observations from ultrasound examination were recorded on a sketch sheet in which each ovary and its structures (CL and follicles ≧4 mm in diameter) were represented in size and location. Ovulation was defined as the disappearance of any follicle ≧8 mm between two consecutive daily examinations, and was confirmed by the subsequent development of a CL [33]. Follicular wave emergence was defined retrospectively as the day when the dominant follicle was first identified at a diameter of 4 or 5 mm. If the dominant follicle was not identified until it reached 6 or 7 mm, the previous day was considered day of the follicular wave emergence. The dominant follicle of a wave was defined as the largest antral follicle of that wave after deviation, and the first subordinate follicle as the second largest antral follicle of that wave. The day of onset of follicular and luteal regression was defined as the first day of an apparent constant decrease in follicular and luteal diameters, respectively.
Statistical analyses were done using the Statistical Analysis System software package (SAS Learning Edition 9.1, 2006; SAS Institute Inc., Cary, N.C., USA). Time-series hormone data, plasma letrozole concentration, and follicular diameter profiles were analyzed by repeated measures, using the PROC MIXED procedure. The main effects were treatment (high, medium and low dose, and control), time, and their interactions.

For `N#Cc1ccc(C(c2ccc(C#N)cc2)n2cncn2)cc1` [Letrozole, letrozole], the “differences in plasma progesterone concentrations vs control” value (plasma progesterone) was “not significant”, the “number of heifers in which the extant dominant follicle ovulated” value (“number of heifers” below) ([1]; high dose 500 μg/kg iv) was 5/9 and the “number of heifers” value ([1]; low dose 125 μg/kg iv) was 7/10. The “number of heifers” value ([1]; medium dose 250 μg/kg iv) was 5/10, the “dominant follicle diameter profile compared to control heifers” value ([1]; single iv dose, all dose groups combined (n=29) vs saline controls, P<0.04) was “larger” and the “diameter to which the dominant follicle grew” value ([1]; single iv dose, dose groups combined, control 9.7±0.55, mean±SEM) was 11.0±0.32 mm. The “Treatment to onset of regression of extant dominant follicle” value ([1]; single iv dose, doses combined, n=13, mean±SEM) was 8.7 ± 0.47^a days, the “Treatment to ovulation of extant dominant follicle” value ([1]; single iv dose, doses combined, n=16, mean±SEM) was 9.0 ± 0.42^a days and the “Treatment to wave emergence” value ([1]; single iv dose, low-, medium-, high-dose combined, n=29, mean±SEM) was 7.5 ± 0.27^a days.
